Values after ≈ are worked out from the molar mass of the structure shown. Structures can show the parent of a compound that is named as a salt.
Legend:
MDA-MB-231 [1] = experiment: cells; settings: Homo sapiens, MDA-MB-231, 72 h
Description: (§1) Cytotoxicity against human MDA-MB-231 cells assessed as cell growth inhibition incubated for 72 hrs by MTT assay

SW480 = experiment: Cytotoxicity against human SW480 cells assessed as cell growth inhibition incubated for 72 hrs by MTT assay; type: functional, cell-based; settings: Homo sapiens, SW480, 72 h
HEL = experiment: Cytotoxicity against HEL cells assessed as cell growth inhibition incubated for 72 hrs by MTT assay; type: functional, cell-based, Homo sapiens
[2] = Solubility of compound in PBS at pH 7.4 at 2 mg measured for 24 hrs by HPLC-UV analysis; type: physicochemical
MDA-MB-231 [3] = test system: MDA-MB-231
Description: as §1

Row | Compound | IC50 (MDA-MB-231 [1]) | IC50 (SW480) | IC50 (HEL; Homo sapiens, HEL, 72 h) | solubility at 24 h [2] | IC50 (HEL; hel) | IC50 (MDA-MB-231 [3])
1 | COc1cc(OC)c2c(c1)O[C@@]1(c3ccc(O)cc3)[C@H](c3ccccc3)C[C@@H](O)[C@@]21O (racemic) | 350 nM | > 1000 nM | 180 nM | 50 µg/mL (≈ 0.119 mM) | – | –
2 | COc1cc(OC)c2c(c1)O[C@@]1(c3ccc(OC)c(CN4CCOCC4)c3)[C@H](c3ccccc3)C[C@@H](O)[C@@]21O (racemic) | > 1000 nM | > 1000 nM | 140 nM | – | – | –
3 | CCCCN(CCCC)Cc1cc([C@@]23Oc4cc(OC)cc(OC)c4[C@]2(O)[C@H](O)C[C@H]3c2ccccc2)ccc1OC (racemic) | > 1000 nM | > 1000 nM | > 1000 nM | – | – | –
4 | CCN(CC)CCCCCOc1ccc([C@@]23Oc4cc(OC)cc(OC)c4[C@]2(O)[C@H](O)C[C@H]3c2ccccc2)cc1 (racemic) | 130 nM | 690 nM | 260 nM | – | – | –
5 | CCN(CC)CCCCCCCCOc1ccc([C@@]23Oc4cc(OC)cc(OC)c4[C@]2(O)[C@H](O)C[C@H]3c2ccccc2)cc1 (racemic) | 470 nM | 650 nM | 390 nM | – | – | –
6 | COc1cc(OC)c2c(c1)O[C@@]1(c3ccc(O)c(CN4CCCCC4)c3)[C@H](c3ccccc3)C[C@@H](O)[C@@]21O (racemic) | > 1000 nM | > 1000 nM | > 1000 nM | – | – | –
7 | CCN(CC)Cc1cc([C@@]23Oc4cc(OC)cc(OC)c4[C@]2(O)[C@H](O)C[C@H]3c2ccccc2)ccc1O (racemic) | > 1000 nM | > 1000 nM | > 1000 nM | – | – | –
8 | COc1cc(OC)c2c(c1)O[C@@]1(c3ccc(OCCn4cnc5ccccc54)cc3)[C@H](c3ccccc3)C[C@@H](O)[C@@]21O (racemic) | > 1000 nM | > 1000 nM | > 1000 nM | – | – | –
9 | CCN(CC)CCOc1ccc([C@@]23Oc4cc(OC)cc(OC)c4[C@]2(O)[C@H](O)C[C@H]3c2ccccc2)cc1 (racemic) | > 1000 nM | > 1000 nM | > 1000 nM | – | – | –
10 | COc1cc(OC)c2c(c1)O[C@@]1(c3ccc(OCCCCCCCCN4CCN(C)CC4)cc3)[C@H](c3ccccc3)C[C@@H](O)[C@@]21O (racemic) | 450 nM | 690 nM | 460 nM | – | – | –
11 | COc1cc(OC)c2c(c1)O[C@@]1(c3ccc(OCCCCn4ccnc4)cc3)[C@H](c3ccccc3)C[C@@H](O)[C@@]21O (racemic) | 650 nM | > 1000 nM | 560 nM | – | – | –
12 | COc1cc(OC)c2c(c1)O[C@@]1(c3ccc(OCCCCN(C)C)cc3)[C@H](c3ccccc3)C[C@@H](O)[C@@]21O (racemic) | 580 nM | > 1000 nM | > 1000 nM | – | – | –
13 | COc1cc(OC)c2c(c1)O[C@@]1(c3ccc(OCCn4ccnc4)cc3)[C@H](c3ccccc3)C[C@@H](O)[C@@]21O (racemic) | > 1000 nM | > 1000 nM | > 1000 nM | – | – | –
14 | COc1cc(OC)c2c(c1)O[C@@]1(c3ccc(OC)c(CN4CCCC4)c3)[C@H](c3ccccc3)C[C@@H](O)[C@@]21O (racemic) | > 1000 nM | > 1000 nM | 670 nM | – | – | –
15 | COc1cc(OC)c2c(c1)O[C@@]1(c3ccc(OCCCCCN(C)C)cc3)[C@H](c3ccccc3)C[C@@H](O)[C@@]21O (racemic) | 370 nM | > 1000 nM | 170 nM | – | – | –
16 | COc1cc(OC)c2c(c1)O[C@@]1(c3ccc(OCCCCN4CCCCC4)cc3)[C@H](c3ccccc3)C[C@@H](O)[C@@]21O (racemic) | 660 nM | > 1000 nM | 460 nM | – | – | –
17 | COc1cc(OC)c2c(c1)O[C@@]1(c3ccc(OC)c(CN(C)C)c3)[C@H](c3ccccc3)C[C@@H](O)[C@@]21O (racemic) | > 1000 nM | > 1000 nM | 190 nM | – | – | –
18 | COc1cc(OC)c2c(c1)O[C@@]1(c3ccc(OCCN4CCOCC4)cc3)[C@H](c3ccccc3)C[C@@H](O)[C@@]21O (racemic) | > 1000 nM | > 1000 nM | > 1000 nM | – | – | –
19 | COc1cc(OC)c2c(c1)O[C@@]1(c3ccc(OCCCCCn4ccnc4)cc3)[C@H](c3ccccc3)C[C@@H](O)[C@@]21O (racemic) | 320 nM | 880 nM | 310 nM | – | – | –
20 | COc1cc(OC)c2c(c1)O[C@@]1(c3ccc(O)c(CN(C)C)c3)[C@H](c3ccccc3)C[C@@H](O)[C@@]21O (racemic) | > 1000 nM | > 1000 nM | > 1000 nM | – | – | –

Row | Compound | IC50 (MDA-MB-231 [1]) | IC50 (SW480) | IC50 (HEL; Homo sapiens, HEL, 72 h) | solubility at 24 h [2] | IC50 (HEL; hel) | IC50 (MDA-MB-231 [3])
21 | COc1cc(OC)c2c(c1)O[C@@]1(c3ccc(O)c(CN4CCCC4)c3)[C@H](c3ccccc3)C[C@@H](O)[C@@]21O (racemic) | > 1000 nM | > 1000 nM | > 1000 nM | – | – | –
22 | COc1cc(OC)c2c(c1)O[C@@]1(c3ccc(OCCN4CCCCC4)cc3)[C@H](c3ccccc3)C[C@@H](O)[C@@]21O (racemic) | > 1000 nM | > 1000 nM | > 1000 nM | – | – | –
23 | CCCCN(CCCC)Cc1cc([C@@]23Oc4cc(OC)cc(OC)c4[C@]2(O)[C@H](O)C[C@H]3c2ccccc2)ccc1O (racemic) | > 1000 nM | > 1000 nM | > 1000 nM | – | – | –
24 | COc1cc(OC)c2c(c1)O[C@@]1(c3ccc(OCCCCCCCCn4cccc4)cc3)[C@H](c3ccccc3)C[C@@H](O)[C@@]21O (racemic) | > 1000 nM | > 1000 nM | > 1000 nM | – | – | –
25 | COc1cc(OC)c2c(c1)O[C@@]1(c3ccc(OCCCCCCCCN4CCCCC4)cc3)[C@H](c3ccccc3)C[C@@H](O)[C@@]21O (racemic) | > 1000 nM | > 1000 nM | 240 nM | – | – | –
26 | COc1cc(OC)c2c(c1)O[C@@]1(c3ccc(OCCCCCN4CCCCC4)cc3)[C@H](c3ccccc3)C[C@@H](O)[C@@]21O (racemic) | 190 nM | > 1000 nM | 180 nM | – | – | –
27 | COc1cc(OC)c2c(c1)O[C@@]1(c3ccc(OCCCCN4CCN(C)CC4)cc3)[C@H](c3ccccc3)C[C@@H](O)[C@@]21O (racemic) | 220 nM | 650 nM | 380 nM | – | – | –
28 | CCN(CC)Cc1cc([C@@]23Oc4cc(OC)cc(OC)c4[C@]2(O)[C@H](O)C[C@H]3c2ccccc2)ccc1OC (racemic) | > 1000 nM | 430 nM | 120 nM | – | – | –
29 | COc1cc(OC)c2c(c1)O[C@@]1(c3ccc(OC)c(CN4CCCCC4)c3)[C@H](c3ccccc3)C[C@@H](O)[C@@]21O (racemic) | > 1000 nM | > 1000 nM | 570 nM | – | – | –
30 | COc1cc(OC)c2c(c1)O[C@@]1(c3ccc(OCCN4CCCC4)cc3)[C@H](c3ccccc3)C[C@@H](O)[C@@]21O (racemic) | > 1000 nM | > 1000 nM | > 1000 nM | – | – | –
31 | COc1cc(OC)c2c(c1)O[C@@]1(c3ccc(OCCN(C)C)cc3)[C@H](c3ccccc3)C[C@@H](O)[C@@]21O (racemic) | > 1000 nM | > 1000 nM | > 1000 nM | – | – | –
32 | COc1cc(OC)c2c(c1)O[C@@]1(c3ccc(OCCN4CCN(C)CC4)cc3)[C@H](c3ccccc3)C[C@@H](O)[C@@]21O (racemic) | > 1000 nM | > 1000 nM | > 1000 nM | – | – | –
33 | COc1cc(OC)c2c(c1)O[C@@]1(c3ccc(OCCCCCCCCN(C)C)cc3)[C@H](c3ccccc3)C[C@@H](O)[C@@]21O (racemic) | 210 nM | > 1000 nM | 220 nM | – | – | –
34 | COc1cc(OC)c2c(c1)O[C@@]1(c3ccc(O)c(CN4CCOCC4)c3)[C@H](c3ccccc3)C[C@@H](O)[C@@]21O (racemic) | > 1000 nM | > 1000 nM | 490 nM | – | – | –
35 | CCN(CC)CCCCOc1ccc([C@@]23Oc4cc(OC)cc(OC)c4[C@]2(O)[C@H](O)C[C@H]3c2ccccc2)cc1 (racemic) | 550 nM | > 1000 nM | > 1000 nM | – | – | –
36 | COc1cc(OC)c2c(c1)O[C@@]1(c3ccc(OCCCCCN4CCN(C)CC4)cc3)[C@H](c3ccccc3)C[C@@H](O)[C@@]21O (racemic; form 1) | – | 550 nM | – | 8900 µg/mL (≈ 15.1 mM) | 230 nM | 110 nM
37 | COc1cc(OC)c2c(c1)O[C@@]1(c3ccc(OCCCCCN4CCN(C)CC4)cc3)[C@H](c3ccccc3)C[C@@H](O)[C@@]21O (stereo in doubt; (+)-18o) | – | – | – | – | > 1000 nM | –
38 | COc1cc(OC)c2c(c1)O[C@@]1(c3ccc(OCCCCCN4CCN(C)CC4)cc3)[C@H](c3ccccc3)C[C@@H](O)[C@@]21O (stereo in doubt; (-)-18o) | – | – | – | – | 120 nM | –
39 | COc1cccc2c1C(=O)c1c(O)c3c(c(O)c1C2=O)C[C@@](O)(C(=O)CO)C[C@@H]3O[C@H]1C[C@H](N)[C@H](O)[C@H](C)O1 [DOXORUBICIN HYDROCHLORIDE] | 500 nM | 120 nM | 240 nM | – | – | –
